Counter-ions that a name gives are not always drawn.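 Exposure lasted 48 hours, with cells grown in 96-well plates and compounds tested at five concentrations. GI50: concentration for 50% inhibition of growth.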 The source made the active and inactive calls. No stated cut-off is given here; in the data, active = GI50 up to about 1.1 µM and inactive = higher.
Assays:
Assay in all cases: growth of human tumour cells (NCI), 48 h
786-0 = tested on: 786-0
A498 = tested on: A498
A549 = tested on: A549
ACHN = tested on: ACHN
BT-549 = tested on: BT-549
CAKI-1 = tested on: CAKI-1
CCRF-CEM = tested on: CCRF-CEM
COLO 205 = tested on: COLO 205
DU-145 = tested on: DU-145
EKVX = tested on: EKVX
HCC 2998 = tested on: HCC 2998
HCT-116 = tested on: HCT-116
HCT-15 = tested on: HCT-15
HL-60 = tested on: HL-60
HOP-62 = tested on: HOP-62
HOP-92 = tested on: HOP-92
HT-29 = tested on: HT-29
Hs-578T = tested on: Hs-578T
IGROV-1 = tested on: IGROV-1
K562 = tested on: K562
KM12 = tested on: KM12
LOX IMVI = tested on: LOX IMVI
M14 = tested on: M14
MCF7 = tested on: MCF7
MDA-MB-231 = tested on: MDA-MB-231
MDA-MB-435 = tested on: MDA-MB-435
MDA-N = tested on: MDA-N
MOLT-4 = tested on: MOLT-4
Malme-3M = tested on: Malme-3M
NCI-H226 = tested on: NCI-H226
NCI-H23 = tested on: NCI-H23
NCI-H460 = tested on: NCI-H460
NCI-H522 = tested on: NCI-H522
NCI/ADR-RES = tested on: NCI/ADR-RES
OVCAR-3 = tested on: OVCAR-3
OVCAR-4 = tested on: OVCAR-4
OVCAR-5 = tested on: OVCAR-5
OVCAR-8 = tested on: OVCAR-8
PC-3 = tested on: PC-3
RPMI-8226 = tested on: RPMI-8226
RXF 393 = tested on: RXF 393
SF-268 = tested on: SF-268
SF-295 = tested on: SF-295
SF-539 = tested on: SF-539
SK-MEL-28 = tested on: SK-MEL-28
SK-MEL-2 = tested on: SK-MEL-2
SK-MEL-5 = tested on: SK-MEL-5
SK-OV-3 = tested on: SK-OV-3
SN12C = tested on: SN12C
SNB-19 = tested on: SNB-19
SNB-75 = tested on: SNB-75
SR = tested on: SR
SW-620 = tested on: SW-620
T47D = tested on: T47D
TK-10 = tested on: TK-10
U-251 = tested on: U-251
UACC-257 = tested on: UACC-257
UACC-62 = tested on: UACC-62
UO-31 = tested on: UO-31
DMS-114 = tested on: DMS-114
KM-20L2 = tested on: KM-20L2

SMILES: CCN(CC)c1ccc(/C=C/C2=NN(c3cccc(S(=O)(=O)O)c3)C3(C2)C(Cl)C(=O)N3c2nc3ccccc3s2)cc1 (centres undefined)
- GI50 (786-0): 5.65 µM (inactive)
- GI50 (A498): 12 µM (inactive)
- GI50 (A549): 11.2 µM (inactive)
- GI50 (ACHN): 10.9 µM (inactive)
- GI50 (BT-549): 9.25 µM (inactive)
- GI50 (CAKI-1): 3.48 µM (inactive)
- GI50 (CCRF-CEM): 1.83 µM (inactive)
- GI50 (COLO 205): 14.1 µM (inactive)
- GI50 (DU-145): 12.6 µM (inactive)
- GI50 (EKVX): 8.79 µM (inactive)
- GI50 (HCC 2998): 7.36 µM (inactive)
- GI50 (HCT-116): 10.5 µM (inactive)
- GI50 (HCT-15): 7.03 µM
- GI50 (HL-60): 1.89 µM (inactive)
- GI50 (HOP-62): 7.36 µM (inactive)
- GI50 (HOP-92): 6.73 µM (inactive)
- GI50 (HT-29): 13.8 µM (inactive)
- GI50 (Hs-578T): 14.4 µM (inactive)
- GI50 (IGROV-1): 4.88 µM (inactive)
- GI50 (K562): 5.55 µM (inactive)
- GI50 (KM12): 7.83 µM (inactive)
- GI50 (LOX IMVI): 2.82 µM (inactive)
- GI50 (M14): 12.4 µM (inactive)
- GI50 (MCF7): 6.7 µM (inactive)
- GI50 (MDA-MB-231): 7.8 µM (inactive)
- GI50 (MDA-MB-435): 5.87 µM (inactive)
- GI50 (MDA-N): 12.4 µM (inactive)
- GI50 (MOLT-4): 3.04 µM (inactive)
- GI50 (Malme-3M): 11.1 µM (inactive)
- GI50 (NCI-H226): 13.1 µM (inactive)
- GI50 (NCI-H23): 7.01 µM (inactive)
- GI50 (NCI-H460): 9.1 µM (inactive)
- GI50 (NCI-H522): 1.72 µM (inactive)
- GI50 (NCI/ADR-RES): 17.9 µM (inactive)
- GI50 (OVCAR-3): 4.11 µM (inactive)
- GI50 (OVCAR-4): 4.89 µM (inactive)
- GI50 (OVCAR-5): 23.1 µM (inactive)
- GI50 (OVCAR-8): 8.99 µM (inactive)
- GI50 (PC-3): 8.28 µM (inactive)
- GI50 (RPMI-8226): 2.32 µM (inactive)
- GI50 (RXF 393): 3.98 µM (inactive)
- GI50 (SF-268): 16.8 µM (inactive)
- GI50 (SF-295): 13.3 µM (inactive)
- GI50 (SF-539): 3.32 µM (inactive)
- GI50 (SK-MEL-28): 20.7 µM (inactive)
- GI50 (SK-MEL-2): 12.5 µM (inactive)
- GI50 (SK-MEL-5): 6.71 µM (inactive)
- GI50 (SK-OV-3): 12.4 µM (inactive)
- GI50 (SN12C): 8.18 µM (inactive)
- GI50 (SNB-19): 12.5 µM (inactive)
- GI50 (SNB-75): 11.1 µM (inactive)
- GI50 (SR): 2.47 µM (inactive)
- GI50 (SW-620): 10.2 µM (inactive)
- GI50 (T47D): 3.06 µM (inactive)
- GI50 (TK-10): 4.95 µM (inactive)
- GI50 (U-251): 3.4 µM (inactive)
- GI50 (UACC-257): 7.24 µM (inactive)
- GI50 (UACC-62): 7.91 µM (inactive)
- GI50 (UO-31): 1.72 µM (inactive)

SMILES: COc1ccc2c(=O)c(C)c(-c3ccccc3)oc2c1CN(C)C [DIMEFLINE HYDROCHLORIDE]
- GI50 (A498): 56.4 µM (inactive)
- GI50 (DMS-114): > 100 µM (inactive)
- GI50 (EKVX): > 100 µM (inactive)
- GI50 (HCT-15): > 100 µM
- GI50 (K562): 57.1 µM (inactive)
- GI50 (KM-20L2): 58.2 µM (inactive)
- GI50 (LOX IMVI): 69.3 µM (inactive)
- GI50 (NCI-H460): 82.8 µM (inactive)
- GI50 (OVCAR-3): > 100 µM (inactive)
- GI50 (OVCAR-5): 47.1 µM (inactive)
- GI50 (RXF 393): 76 µM (inactive)
- GI50 (SF-268): > 100 µM (inactive)
- GI50 (SK-MEL-28): > 100 µM (inactive)
- GI50 (SK-MEL-5): 55 µM (inactive)
- GI50 (SN12C): > 100 µM (inactive)
- GI50 (SR): 84.5 µM (inactive)
- GI50 (SW-620): > 100 µM (inactive)
- GI50 (TK-10): 99.8 µM (inactive)
- GI50 (U-251): > 100 µM (inactive)
- GI50 (UACC-257): > 100 µM (inactive)
- GI50 (UO-31): 85.7 µM (inactive)

SMILES: CCOC(=O)CCc1cc(=O)oc2cc(O)cc(O)c12
- GI50 (786-0): > 100 µM (inactive)
- GI50 (A498): 50.1 µM (inactive)
- GI50 (A549): > 100 µM (inactive)
- GI50 (ACHN): > 100 µM (inactive)
- GI50 (BT-549): > 100 µM (inactive)
- GI50 (CAKI-1): > 100 µM (inactive)
- GI50 (CCRF-CEM): > 100 µM (inactive)
- GI50 (COLO 205): > 100 µM (inactive)
- GI50 (DU-145): > 100 µM (inactive)
- GI50 (EKVX): 62.5 µM (inactive)
- GI50 (HCC 2998): 52.7 µM (inactive)
- GI50 (HCT-116): > 100 µM (inactive)
- GI50 (HCT-15): > 100 µM
- GI50 (HL-60): > 100 µM (inactive)
- GI50 (HOP-62): > 100 µM (inactive)
- GI50 (HOP-92): > 100 µM (inactive)
- GI50 (HT-29): > 100 µM (inactive)
- GI50 (Hs-578T): > 100 µM (inactive)
- GI50 (IGROV-1): > 100 µM (inactive)
- GI50 (K562): > 100 µM (inactive)
- GI50 (KM12): > 100 µM (inactive)
- GI50 (LOX IMVI): > 100 µM (inactive)
- GI50 (M14): > 100 µM (inactive)
- GI50 (MCF7): > 100 µM (inactive)
- GI50 (MDA-MB-231): > 100 µM (inactive)
- GI50 (MDA-MB-435): > 100 µM (inactive)
- GI50 (MDA-N): > 100 µM (inactive)
- GI50 (MOLT-4): > 100 µM (inactive)
- GI50 (Malme-3M): > 100 µM (inactive)
- GI50 (NCI-H226): > 100 µM (inactive)
- GI50 (NCI-H23): > 100 µM (inactive)
- GI50 (NCI-H460): > 100 µM (inactive)
- GI50 (NCI-H522): > 100 µM (inactive)
- GI50 (NCI/ADR-RES): > 100 µM (inactive)
- GI50 (OVCAR-3): > 100 µM (inactive)
- GI50 (OVCAR-4): > 100 µM (inactive)
- GI50 (OVCAR-5): > 100 µM (inactive)
- GI50 (OVCAR-8): > 100 µM (inactive)
- GI50 (PC-3): > 100 µM (inactive)
- GI50 (RPMI-8226): > 100 µM (inactive)
- GI50 (RXF 393): > 100 µM (inactive)
- GI50 (SF-268): > 100 µM (inactive)
- GI50 (SF-295): > 100 µM (inactive)
- GI50 (SF-539): > 100 µM (inactive)
- GI50 (SK-MEL-28): > 100 µM (inactive)
- GI50 (SK-MEL-2): > 100 µM (inactive)
- GI50 (SK-MEL-5): > 100 µM (inactive)
- GI50 (SK-OV-3): > 100 µM (inactive)
- GI50 (SN12C): > 100 µM (inactive)
- GI50 (SNB-19): > 100 µM (inactive)
- GI50 (SNB-75): > 100 µM (inactive)
- GI50 (SR): > 100 µM (inactive)
- GI50 (SW-620): > 100 µM (inactive)
- GI50 (T47D): > 100 µM (inactive)
- GI50 (TK-10): > 100 µM (inactive)
- GI50 (U-251): > 100 µM (inactive)
- GI50 (UACC-257): > 100 µM (inactive)
- GI50 (UACC-62): > 100 µM (inactive)
- GI50 (UO-31): > 100 µM (inactive)
